Assay [1] has as its system E. coli ATCC 25922. Nature of the assay: Photoinactivation (biocidal activity) of E. coli cell suspension after red light irradiation. It counts as cell-based. The conditions noted are these: for concentration able to sterilize completely the cell suspension: in combination with EDTA 0.5 mM, 100 mW/cm2 red light (FIG. 2, FIG. 5). Here is the method: These microorganisms were used in the experiments in a stationary phase of growth.
(§1) The experimental protocol was the following:
(§2) The cell suspensions were diluted in an appropriate medium. Addition of an aliquot of stock solution of the composition to be tested to the cell suspension up to the intended final concentrations. Incubation in dark at 37° C. for 5 minutes. Irradiation (650≦λ≦850 nm; 50÷100 mW/cm2; 1÷10 minutes) of cell suspension for each dilution of the photosensitising composition.

For assay [2], the system named is Pseudomonas aeruginosa PAO-1. The assay is described as follows: Photoinactivation (biocidal activity) of Pseudomonas aeruginosa cell suspension after red light irradiation. The class given is cell-based. The protocol: The usefulness of the pharmaceutical compositions of the present invention has been evaluated through their activity against the Gram negative micro-organisms Pseudomonas aeruginosa PAO-1 and E. coli ATCC 25922. These microorganisms were used in the experiments in a stationary phase of growth.
as §1, §2

As for “{2(3),9(10),16(17),23(24)-tetra[1,3-bis-(trimethylammonium)propyl-2-oxy]zinc(II) phthalocyanine}octaiodide [compound 2]”, the “concentration able to sterilize completely the cell suspension” value in assay [1] (5 min incubation) amounted to 1 µM. Also, the “photosensitizer concentration necessary to sterilize the cell suspension” value in assay [1] (without EDTA, 5 min incubation, 100 mW/cm2 red light (FIG. 5a)) is 20 µM.
Turning to “{2,3,9,10,16,17,23,24-octa[3-(N,N,N-trimethylammonium)phenoxy]zinc(II) phthalocyanine}octaiodide [compound 1]”, in assay [2] (compound alone, no chelating agent, 100 mW/cm2 red light (FIG. 3)), the “concentration up to which not active (photoinactivation)” value was more than 40 µM. For the same substance, the “reduction of the population” value in assay [2] (with EDTA 0.5 mM, 1 μM concentration, 100 mW/cm2 red light (FIG. 3a)) was found to be 5 log. Moreover, in assay [2] (with EDTA 0.5 mM, 100 mW/cm2 red light (FIG. 3a)), the “concentration able to sterilize the cell suspension” value was 5 µM. For the same substance, the “reduction of the initial population” value in assay [1] (compound alone, no chelating agent, 5 min incubation, irradiation 100 mW/cm2 red light (FIG. 1)) was determined as 4 log. Besides, the “complete sterilization of the cell suspension” value in assay [1] (compound alone, no chelating agent, irradiation 100 mW/cm2 red light (FIG. 1)) is “cannot be obtained”. Further, in assay [1] (5 min incubation), the “concentration able to sterilize completely the cell suspension” value stood at 1 µM.
